Columns and labels:
HDAC6 human recombinant = target: T1, HDAC6 human recombinant (Homo sapiens, UniProt Q9UBN7); assay: Inhibition of HDAC6 activity (fluorimetric assay); assay type: biochemical; settings: test concentrations 0.1, 1, 10, 100 and 1000 nM; 37° C., 60 minutes
T1 construct: purchased Calbiochem 382180
T1 sequence (Q9UBN7 1-1215): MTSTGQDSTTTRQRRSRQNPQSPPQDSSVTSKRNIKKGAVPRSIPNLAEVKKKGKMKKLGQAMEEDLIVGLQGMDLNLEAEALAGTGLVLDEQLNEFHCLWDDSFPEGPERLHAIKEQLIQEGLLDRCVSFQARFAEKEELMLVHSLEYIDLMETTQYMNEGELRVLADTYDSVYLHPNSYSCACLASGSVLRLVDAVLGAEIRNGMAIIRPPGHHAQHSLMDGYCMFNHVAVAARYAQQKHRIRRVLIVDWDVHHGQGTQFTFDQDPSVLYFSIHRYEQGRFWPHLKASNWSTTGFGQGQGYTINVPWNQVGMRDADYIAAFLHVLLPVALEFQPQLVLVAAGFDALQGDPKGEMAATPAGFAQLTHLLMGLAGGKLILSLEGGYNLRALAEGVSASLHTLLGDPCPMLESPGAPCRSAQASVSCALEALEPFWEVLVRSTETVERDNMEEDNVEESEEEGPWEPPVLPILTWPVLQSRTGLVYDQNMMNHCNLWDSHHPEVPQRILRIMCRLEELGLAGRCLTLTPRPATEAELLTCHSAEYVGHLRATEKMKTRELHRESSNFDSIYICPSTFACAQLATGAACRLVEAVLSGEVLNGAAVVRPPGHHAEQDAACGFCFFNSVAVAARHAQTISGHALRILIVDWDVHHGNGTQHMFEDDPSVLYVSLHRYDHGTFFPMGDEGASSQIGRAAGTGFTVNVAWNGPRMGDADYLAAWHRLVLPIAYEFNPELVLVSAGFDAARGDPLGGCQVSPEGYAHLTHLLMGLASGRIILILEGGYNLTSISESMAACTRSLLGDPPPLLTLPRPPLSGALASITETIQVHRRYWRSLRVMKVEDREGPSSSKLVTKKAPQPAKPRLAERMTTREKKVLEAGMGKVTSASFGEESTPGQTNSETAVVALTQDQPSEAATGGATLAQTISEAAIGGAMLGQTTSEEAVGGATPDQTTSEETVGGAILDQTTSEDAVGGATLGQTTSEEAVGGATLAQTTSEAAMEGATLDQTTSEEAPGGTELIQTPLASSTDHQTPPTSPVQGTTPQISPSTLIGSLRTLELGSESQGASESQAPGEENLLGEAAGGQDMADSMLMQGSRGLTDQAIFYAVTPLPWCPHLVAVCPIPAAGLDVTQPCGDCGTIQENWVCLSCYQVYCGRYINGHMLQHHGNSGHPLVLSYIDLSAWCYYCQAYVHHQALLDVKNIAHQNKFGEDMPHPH
Summary of the method: (§1)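 HDAC1 tested with the kit assay mixture at 100, 1000 and 10000 nM compound; recombinant human HDAC6 at 0.1, 1, 10, 100 and 1000 nM. Reaction ran 60 min at 37° C, then developer was added for 30 min at 37° C and fluorescence quantified.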

HDAC1 = target: T2, HDAC1 (Homo sapiens, UniProt Q13547); assay: Inhibition of HDAC1 activity (HDAC1 fluorimetric drug discovery assay kit); assay type: biochemical; settings: test concentrations 100, 1000 and 10000 nM; 37° C., 60 minutes
T2 construct: purchased Enzolifesciences BML-AK511
Summary of the method: as §1

T2 sequence (Q13547 whole entry): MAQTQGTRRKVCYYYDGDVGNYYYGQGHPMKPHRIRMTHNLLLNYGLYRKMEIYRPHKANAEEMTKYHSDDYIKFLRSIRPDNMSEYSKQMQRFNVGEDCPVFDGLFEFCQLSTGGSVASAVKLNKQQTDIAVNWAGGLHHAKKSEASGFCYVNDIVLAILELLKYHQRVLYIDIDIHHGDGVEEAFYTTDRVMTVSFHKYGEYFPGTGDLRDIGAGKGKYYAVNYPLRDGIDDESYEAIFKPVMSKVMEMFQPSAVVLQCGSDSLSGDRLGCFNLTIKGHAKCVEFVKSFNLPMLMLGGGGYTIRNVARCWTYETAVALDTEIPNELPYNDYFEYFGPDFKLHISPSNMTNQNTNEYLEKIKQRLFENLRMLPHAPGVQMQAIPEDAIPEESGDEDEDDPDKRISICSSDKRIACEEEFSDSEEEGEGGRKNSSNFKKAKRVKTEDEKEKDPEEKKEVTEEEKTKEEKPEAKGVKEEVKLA

Structure (SMILES) | IC50 (HDAC6 human recombinant) [nM] | IC50 (HDAC1) [nM]
O=C(NO)c1ccc(Cn2ccc3cc(C4CCN(S(=O)(=O)c5ccccc5)CC4)cnc32)cc1 [Compound 876, N-hydroxy-4-((5-(1-(phenylsulfonyl)piperidin-4-yl)-1H-pyrrolo[2,3-b]pyridin-1-yl)methyl)benzamide] | 42 | 2800
C[C@@H]1CN(c2cnc3c(ccn3Cc3ccc(C(=O)NO)cc3)c2)C[C@H](C)N1Cc1cccc(F)c1 [Compound 857, 4-((5-((3S,5R)-4-(3-fluorobenzyl)-3,5-dimethylpiperazin-1-yl)-1H-pyrrolo[2,3-b]pyridin-1-yl)methyl)-N-hydroxybenzamide] | 24.8 | 2140
O=C(NO)c1ccc(Cn2ccc3cc(C4=CCOCC4)cnc32)cc1 [Compound 629, 4-((5-(3,6-dihydro-2H-pyran-4-yl)-1H-pyrrolo[2,3-b]pyridin-1-yl)methyl)-N-hydroxybenzamide] | 4 | 1050
Nc1cccc(-c2cnc3c(ccn3Cc3ccc(C(=O)NO)cc3)c2)c1 [Compound 690, 4-((5-(3-aminophenyl)-1H-pyrrolo[2,3-b]pyridin-1-yl)methyl)-N-hydroxybenzamide] | 12 | 2310
CC(C)(F)C(=O)N1CCN(c2cnc3c(ccn3Cc3ccc(C(=O)NO)cc3)c2)CC1 [Compound 855, 4-((5-(4-(2-fluoro-2-methylpropanoyl)piperazin-1-yl)-1H-pyrrolo[2,3-b]pyridin-1-yl)methyl)-N-hydroxybenzamide] | 3.5 | 250
CC(C)(C)OC(=O)N1CC=C(c2nccc3c2ccn3Cc2ccc(C(=O)NO)cc2)CC1 [Compound 757, tert-butyl 4-(1-(4-(hydroxycarbamoyl)benzyl)-1H-pyrrolo[3,2-c]pyridin-4-yl)-5,6-dihydropyridine-1(2H)-carboxylate] | 17 | 1120

Further lines, results first:

IC50 (HDAC6 human recombinant) [nM] | IC50 (HDAC1) [nM] | Structure (SMILES)
7.6 | 1060 | O=C(NO)c1ccc(Cn2ccc3cc(C4CCN(C(=O)c5cccc(CN6CCOCC6)c5)CC4)cnc32)cc1 [Compound 895, N-hydroxy-4-((5-(1-(3-(morpholinomethyl)benzoyl)piperidin-4-yl)-1H-pyrrolo[2,3-b]pyridin-1-yl)methyl)benzamide]
6.4 | 1120 | O=C(NO)c1ccc(Cn2ccc3cc(C4CCN(Cc5cccc(CN6CCOCC6)c5)CC4)cnc32)cc1 [Compound 878, N-hydroxy-4-((5-(1-(3-(morpholinomethyl)benzyl)piperidin-4-yl)-1H-pyrrolo[2,3-b]pyridin-1-yl)methyl)benzamide]
8.6 | 800 | CN1CCN(Cc2cccc(C(=O)N3CCC(c4cnc5c(ccn5Cc5ccc(C(=O)NO)cc5)c4)CC3)c2)CC1 [Compound 896, N-hydroxy-4-((5-(1-(3-((4-methylpiperazin-1-yl)methyl)benzoyl)piperidin-4-yl)-1H-pyrrolo[2,3-b]pyridin-1-yl)methyl)benzamide]
1.4 | 420 | CC(C)(C(=O)O)N1CCC(c2ccnc3c2ccn3Cc2ccc(C(=O)NO)cc2)CC1 [Compound 1028, 2-(4-(1-(4-(hydroxycarbamoyl)benzyl)-1H-pyrrolo[2,3-b]pyridin-4-yl)piperidin-1-yl)-2-methylpropionic acid]
5.8 | 70 | O=C(NO)c1ccc(Cn2ccc3c(N4CCC5(CCN(Cc6cccnc6)C5)CC4)ccnc32)cc1 [Compound 1022, N-hydroxy-4-((4-(2-(pyridin-3-ylmethyl)-2,8-diazaspiro[4.5]decan-8-yl)-1H-pyrrolo[2,3-b]pyridin-1-yl)methyl)benzamide]
12.7 | 1930 | O=C(NO)c1ccc(Cn2ccc3cc(N4CCN(Cc5cccc(F)c5)CC4)cnc32)cc1 [Compound 851, 4-((5-(4-(3-fluorobenzyl)piperazin-1-yl)-1H-pyrrolo[2,3-b]pyridin-1-yl)methyl)-N-hydroxybenzamide]
